Patent US20240199546A1, “INHIBITORS OF SOLUTE CARRIER FAMILY 6A MEMBER 19 (SLC6A19) AND METHODS OF USE THEREOF” (Maze Therapeutics, Inc., priority 2022, published 2024)
Where two headings read alike, the source gives them in different places.

Target: T1, human SLC6A19 and TMEM27 (Homo sapiens, UniProt Q695T7)
T1 construct: expressed in transfected cells
T1 sequence (Q695T7 1-634): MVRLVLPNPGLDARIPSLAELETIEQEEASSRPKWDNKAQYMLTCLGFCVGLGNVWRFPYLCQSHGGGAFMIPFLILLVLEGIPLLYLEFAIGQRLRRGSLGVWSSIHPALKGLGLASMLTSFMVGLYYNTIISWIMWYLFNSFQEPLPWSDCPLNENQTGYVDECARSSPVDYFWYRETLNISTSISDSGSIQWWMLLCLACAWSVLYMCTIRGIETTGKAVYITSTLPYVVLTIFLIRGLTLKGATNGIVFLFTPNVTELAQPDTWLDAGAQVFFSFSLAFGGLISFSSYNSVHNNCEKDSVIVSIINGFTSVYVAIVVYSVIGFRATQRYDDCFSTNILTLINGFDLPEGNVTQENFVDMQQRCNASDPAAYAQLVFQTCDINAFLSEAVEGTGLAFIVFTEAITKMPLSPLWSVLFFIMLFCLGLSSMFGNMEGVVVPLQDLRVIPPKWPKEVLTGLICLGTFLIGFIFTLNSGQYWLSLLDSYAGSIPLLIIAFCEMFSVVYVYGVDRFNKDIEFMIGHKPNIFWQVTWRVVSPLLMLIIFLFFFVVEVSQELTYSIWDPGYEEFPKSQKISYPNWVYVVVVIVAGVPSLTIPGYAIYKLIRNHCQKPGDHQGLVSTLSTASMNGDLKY
T1 sequence (Q9HBJ8 15-222 partner): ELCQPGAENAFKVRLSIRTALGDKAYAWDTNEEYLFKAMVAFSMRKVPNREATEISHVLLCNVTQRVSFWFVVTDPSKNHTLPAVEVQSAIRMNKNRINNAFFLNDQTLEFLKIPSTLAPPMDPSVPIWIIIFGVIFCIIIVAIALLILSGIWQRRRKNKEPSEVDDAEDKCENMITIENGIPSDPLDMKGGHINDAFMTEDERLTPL
Assay: Radiolabelled (3H) leucine uptake in CHO cells with doxycycline-inducible expression of human SLC6A19 and TMEM27 (Example B-1)
Format: cell-based
Procedure, shortened: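 CHO cells were induced with doxycycline for 18 h at 37 °C, washed in HBSS, then exposed to compounds for 1 h: 8-point, 3-fold dilutions in duplicate, 0.5% DMSO final. Uptake measured by scintillation counting after 2 h shaking. Activity normalized with positive control as 0% and DMSO as 100%.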

[1] = CHO cells with doxycycline-inducible expression of human SLC6A19 and TMEM27, read-out: SLC6A19_Radioligand Uptake Assay IC50

`CC1(C(=O)NCc2cc3cc(OC(F)F)c(OCc4ccon4)cc3[nH]2)CC1` [Compound 605, N-((5-(difluoromethoxy)-6-(isoxazol-3-ylmethoxy)-1H-indol-2-yl)methyl)-1-methylcyclopropane-1-carboxamide] was tested, and the IC50 [1] was 143 nM.

With `Cc1cc(COc2cc3[nH]c(CNC(=O)C4(C)CC4)cc3cc2OC(F)F)on1` [Compound 606, N-((5-(difluoromethoxy)-6-((3-methylisoxazol-5-yl)methoxy)-1H-indol-2-yl)methyl)-1-methylcyclopropane-1-carboxamide] the IC50 [1] was 320 nM.

In the case of `CC1(C(=O)NCc2cc3cc(Cl)c(OCc4cc5ccccc5[nH]4)cc3[nH]2)CC1` [Compound 607, N-((6-((1H-indol-2-yl)methoxy)-5-chloro-1H-indol-2-yl)methyl)-1-methylcyclopropane-1-carboxamide], the IC50 [1] is reported as greater than 6440 nM.

For `CC1(C(=O)NCc2cc3cc(Cl)c(CNc4ccccn4)cc3[nH]2)CC1` [Compound 609, N-((5-chloro-6-((pyridin-2-ylamino)methyl)-1H-indol-2-yl)methyl)-1-methylcyclopropane-1-carboxamide], the IC50 [1] was 339 nM.

Molecule `CC1(C(=O)NCc2cc3cc(Cl)c(CNc4cccnc4)cc3[nH]2)CC1` [Compound 610, N-((5-chloro-6-((pyridin-3-ylamino)methyl)-1H-indol-2-yl)methyl)-1-methylcyclopropane-1-carboxamide] has an IC50 [1] of 991 nM.

Molecule `CC1(C(=O)NCc2cc3cc(F)c(CNc4ccon4)cc3[nH]2)CC1` [Compound 611, N-((5-fluoro-6-((isoxazol-3-ylamino)methyl)-1H-indol-2-yl)methyl)-1-methylcyclopropane-1-carboxamide] has an IC50 [1] of 842 nM.

Molecule `CC1(C(=O)NCc2cc3cc(F)c(COc4ccon4)cc3[nH]2)CC1` [Compound 612, N-((5-fluoro-6-((isoxazol-3-yloxy)methyl)-1H-indol-2-yl)methyl)-1-methylcyclopropane-1-carboxamide] has an IC50 [1] of 152 nM.

`CC1(C(=O)NCc2cc3cc(Cl)c(COc4ccon4)cc3[nH]2)CC1` [Compound 613, N-((5-chloro-6-((isoxazol-3-yloxy)methyl)-1H-indol-2-yl)methyl)-1-methylcyclopropane-1-carboxamide] was tested, and the IC50 [1] was 82.4 nM.

`CNCC(=O)NCc1cc2cc(Cl)c(OCc3cscn3)cc2[nH]1` [Compound 614, N-((5-chloro-6-(thiazol-4-ylmethoxy)-1H-indol-2-yl)methyl)-2-(methylamino)acetamide] gave an IC50 [1] of 3260 nM.

With `CNCC(=O)NCc1cc2cc(Cl)c(OCc3cc(C)no3)cc2[nH]1` [Compound 615, N-((5-chloro-6-((3-methylisoxazol-5-yl)methoxy)-1H-indol-2-yl)methyl)-2-(methylamino)acetamide] the IC50 [1] was 2070 nM.

`Cc1cc(COc2cc3[nH]c(CNC(=O)[C@H]4CCN4)cc3cc2Cl)on1` [Compound 616, (R)-N-((5-chloro-6-((3-methylisoxazol-5-yl)methoxy)-1H-indol-2-yl)methyl)azetidine-2-carboxamide] was tested, and the IC50 [1] was 2730 nM.

For `Cc1cc(COc2cc3[nH]c(CNC(=O)CN)cc3cc2Cl)on1` [Compound 617, 2-amino-N-((5-chloro-6-((3-methylisoxazol-5-yl)methoxy)-1H-indol-2-yl)methyl)acetamide], the IC50 [1] was 3520 nM.

`Cc1cc(COc2cc3[nH]c(CNC(=O)[C@H]4CCCN4)cc3cc2Cl)on1` [Compound 618, (R)—N-((5-chloro-6-((3-methylisoxazol-5-yl)methoxy)-1H-indol-2-yl)methyl)pyrrolidine-2-carboxamide] was tested, and the IC50 [1] was 7510 nM.

`O=C(NCCO)NCc1cc2cc(Cl)c(OCc3cscn3)cc2[nH]1` [Compound 619, 1-((5-chloro-6-(thiazol-4-ylmethoxy)-1H-indol-2-yl)methyl)-3-(2-hydroxyethyl)urea] showed an IC50 [1] greater than 8440 nM.

`CCOC(=O)NCc1cc2cc(Cl)c(OCc3cscn3)cc2[nH]1` [Compound 620, ethyl ((5-chloro-6-(thiazol-4-ylmethoxy)-1H-indol-2-yl)methyl)carbamate] showed an IC50 [1] of 182 nM.

With `COC(=O)NCc1cc2cc(F)c(OCc3cc(C)no3)cc2[nH]1` [Compound 621, methyl ((5-fluoro-6-((3-methylisoxazol-5-yl)methoxy)-1H-indol-2-yl)methyl)carbamate] the IC50 [1] was 1770 nM.

`COC(=O)NCc1cc2cc(F)c(OCc3cscn3)cc2[nH]1` [Compound 622, methyl ((5-fluoro-6-(thiazol-4-ylmethoxy)-1H-indol-2-yl)methyl)carbamate] was tested, and the IC50 [1] was 84.8 nM.

In the case of `CC(C)OC(=O)NCc1cc2cc(Cl)c(OCc3cscn3)cc2[nH]1` [Compound 623, isopropyl ((5-chloro-6-(thiazol-4-ylmethoxy)-1H-indol-2-yl)methyl)carbamate], the IC50 [1] is reported as 532 nM.

In the case of `COC(=O)NCc1cc2cc(Cl)c(OCc3cc(C)no3)cc2[nH]1` [Compound 625, methyl ((5-chloro-6-((3-methylisoxazol-5-yl)methoxy)-1H-indol-2-yl)methyl)carbamate], the IC50 [1] is reported as 90.2 nM.

Molecule `CN(Cc1cn[nH]c1)C(=O)NCc1cc2cc(Cl)c(OCc3cscn3)cc2[nH]1` [Compound 626, 1-((1H-pyrazol-4-yl)methyl)-3-((5-chloro-6-(thiazol-4-ylmethoxy)-1H-indol-2-yl)methyl)-1-methylurea] has an IC50 [1] of 765 nM.

`CN(Cc1cn[nH]c1)C(=O)NCc1cc2cc(Cl)c(OCc3ccon3)cc2[nH]1` [Compound 629, 1-((1H-pyrazol-4-yl)methyl)-3-((5-chloro-6-(isoxazol-3-ylmethoxy)-1H-indol-2-yl)methyl)-1-methylurea] gave an IC50 [1] of 1070 nM.

`CC1(C(=O)NCc2cc3cc(Cl)c(OCC4CC4)cc3[nH]2)CC1` [Compound 633, N-((5-chloro-6-(cyclopropylmethoxy)-1H-indol-2-yl)methyl)-1-methylcyclopropane-1-carboxamide] gave an IC50 [1] of 181 nM.

Molecule `CC1(C(=O)NCc2cc3cc(Cl)c(OCCC4CC4)cc3[nH]2)CC1` [Compound 635, N-((5-chloro-6-(2-cyclopropylethoxy)-1H-indol-2-yl)methyl)-1-methylcyclopropane-1-carboxamide] has an IC50 [1] of 193 nM.

For `Cc1cc(COc2cc3[nH]c(CNC(=O)NC4CC4)cc3cc2Cl)on1` [Compound 636, 1-((5-chloro-6-((3-methylisoxazol-5-yl)methoxy)-1H-indol-2-yl)methyl)-3-cyclopropylurea], the IC50 [1] was 164 nM.

In the case of `Cc1cc(COc2cc3[nH]c(CNC(N)=O)cc3cc2Cl)on1` [Compound 637, 1-((5-chloro-6-((3-methylisoxazol-5-yl)methoxy)-1H-indol-2-yl)methyl)urea], the IC50 (SLC6A19_Radioligand Uptake Assay IC50, CHO cells with doxycycline-inducible expression of human SLC6A19 and TMEM27) is reported as 376 nM.

Molecule `Cc1cc(COc2cc3[nH]c(CNC(=O)NC(C)C)cc3cc2Cl)on1` [Compound 638, 1-((5-chloro-6-((3-methylisoxazol-5-yl)methoxy)-1H-indol-2-yl)methyl)-3-isopropylurea] has an IC50 [1] of 264 nM.

`CC1(C(=O)NCc2[nH]c3cc(OCc4cscn4)ccc3c2C(F)(F)F)CC1` [Compound 640, 1-methyl-N-((6-(thiazol-4-ylmethoxy)-3-(trifluoromethyl)-1H-indol-2-yl)methyl)cyclopropane-1-carboxamide] gave an IC50 [1] of 666 nM.

`CC1(C(=O)NCc2cc3cc(CCC#N)c(OCc4cscn4)cc3[nH]2)CC1` [Compound 641, N-((5-(2-cyanoethyl)-6-(thiazol-4-ylmethoxy)-1H-indol-2-yl)methyl)-1-methylcyclopropane-1-carboxamide] showed an IC50 [1] of 2100 nM.
